Here are results for four compounds from the NIST ThermoML archive (doi:10.1016/j.jct.2018.06.015).

Each structure is given as a SMILES string. ± gives the expanded uncertainty stated by the source.

For data set [1] the following is noted: 100 kPa, Liquid; for speed of sound: Frequency=3 MHz, Single path-length method; for mass density: Vibrating tube method.
The nature of data set [2]: xn = mol fraction of the nth substance listed. The note with it: 100 kPa, Liquid, x2 = 0; for speed of sound: Frequency=3 MHz, Single path-length method; for mass density: Vibrating tube method.

In the case of `CCCCOCCOCCO` [3,6-dioxa-1-decanol], the speed of sound (as a rule, how fast a sound wave travels through the sample) turned out to be 1378.2 ± 2.5 m/s in data set [1] (293.15 K); 1361.3 ± 2.5 m/s in data set [1] (298.15 K); 1344.5 ± 2.5 m/s in data set [1] (303.15 K); 1326.4 ± 2.5 m/s in data set [1] (308.15 K); 1307.7 ± 2.5 m/s in data set [1] (313.15 K). Also, the mass density (as a rule, the mass of a sample divided by its volume) in data set [1] (293.15 K) was found to be 952.288 ± 0.41 kg/m3; in data set [1] (298.15 K), 948.1 ± 0.41 kg/m3; in data set [1] (303.15 K), 943.909 ± 0.41 kg/m3; in data set [1] (308.15 K), 939.704 ± 0.41 kg/m3; in data set [1] (313.15 K) it was 935.503 ± 0.41 kg/m3.

As to `CCCCCCCCCCO` [decan-1-ol] + CCCCOCCOCCO, the speed of sound was 1396.7 ± 2.5 m/s in data set [2] (293.15 K); 1379.4 ± 2.5 m/s in data set [2] (298.15 K); 1362.4 ± 2.5 m/s in data set [2] (303.15 K); 1345.6 ± 2.5 m/s in data set [2] (308.15 K); 1329.1 ± 2.5 m/s in data set [2] (313.15 K). Further, the mass density is listed as 829.898 ± 0.42 kg/m3 in data set [2] (293.15 K); 826.489 ± 0.42 kg/m3 in data set [2] (298.15 K); 823.069 ± 0.42 kg/m3 in data set [2] (303.15 K); 819.635 ± 0.42 kg/m3 in data set [2] (308.15 K); 816.188 ± 0.42 kg/m3 in data set [2] (313.15 K).

`CCCCCCO` [hexan-1-ol] + CCCCOCCOCCO: the speed of sound in data set [2] (293.15 K) came to 1320.4 ± 2.5 m/s; in data set [2] (298.15 K) it was 1303.5 ± 2.5 m/s; in data set [2] (303.15 K) it was 1286.7 ± 2.5 m/s; in data set [2] (308.15 K), 1270 ± 2.5 m/s; in data set [2] (313.15 K), 1253.5 ± 2.5 m/s. The mass density in data set [2] (293.15 K) came to 819.239 ± 0.42 kg/m3; in data set [2] (298.15 K) it was 815.652 ± 0.42 kg/m3; in data set [2] (303.15 K), 812.043 ± 0.42 kg/m3; in data set [2] (308.15 K) it was 808.402 ± 0.42 kg/m3; in data set [2] (313.15 K), 804.743 ± 0.42 kg/m3.

On to `CCCCCCCCO` [octan-1-ol] + CCCCOCCOCCO, for which the speed of sound is listed as 1364.1 ± 2.4 m/s in data set [2] (293.15 K); 1347.3 ± 2.4 m/s in data set [2] (298.15 K); 1331 ± 2.4 m/s in data set [2] (303.15 K); 1314.3 ± 2.4 m/s in data set [2] (308.15 K); 1297.7 ± 2.4 m/s in data set [2] (313.15 K). Further, the mass density in data set [2] (293.15 K) is listed as 825.337 ± 0.41 kg/m3; in data set [2] (298.15 K), 821.877 ± 0.41 kg/m3; in data set [2] (303.15 K) it was 818.4 ± 0.41 kg/m3; in data set [2] (308.15 K), 814.903 ± 0.41 kg/m3; in data set [2] (313.15 K), 811.385 ± 0.41 kg/m3.
